Test results published in paper PMC7377239, “Cardiovascular Effects of Polychlorinated Biphenyls and Their Major Metabolites” (Environmental Health Perspectives, 2020).
Where two headings read alike, the source gives them in different places.

Experiments:
[1] = system: HUVECs; experiment: High-content imaging cytotoxicity in HUVECs, 24 h; format: cell-based, human; settings: Homo sapiens, HUVEC, 24 h, HUVECs; for viability at 0.01 µM / activity at 0.01 µM / viability at 0.1 µM / activity at 0.1 µM / viability at 1 µM / activity at 1 µM / viability at 10 µM / activity at 10 µM / viability at 100 µM / activity at 100 µM: 0.00 µM = 100.00; for viability at 0.1 µM / activity at 0.1 µM: 0.10 µM; for minimal effective concentration: top concentration 100.00 µM
Method in brief: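 Point-of-departure values come from four-parameter logistic fits of vehicle-normalized (0.5% DMSO) imaging readouts, cutoff one SD of vehicle means, 100μM where no concentration–response. Cells: HUVEC monolayers, passages 1–5, treated 24 h at 37°C, 5% CO2, then Hoechst 33342/MitoTracker Orange/calcein AM stained, imaged at 10×.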

[2] = system: iCell cardiomyocytes (human iPSC-derived cardiomyocytes); experiment: High-content imaging of cytotoxicity and mitochondrial integrity in iPSC-CMs; format: cell-based; settings: Homo sapiens; for viability at 0.01 µM / activity at 0.01 µM / viability at 0.1 µM / activity at 0.1 µM / viability at 1 µM / activity at 1 µM / viability at 10 µM / activity at 10 µM / viability at 100 µM / activity at 100 µM: Cardiomyocyte, 0.00 µM = 100.00; for viability at 0.1 µM / activity at 0.1 µM: 0.10 µM; for minimal effective concentration: iPSC-CM
Method in brief: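 This assay measured cytotoxicity and mitochondrial integrity in iPSC cardiomyocytes held in 40μL maintenance medium. After compound exposure, a 2× staining solution with Hoechst 33342 (4μg/mL) and MitoTracker™ Orange (0.4μM) was applied for 15 min at 37°C. Cells were washed, fixed with 3.7% formaldehyde, imaged on DAPI and Cy3 channels, and scored in MetaXpress®.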

[3] = 24 hr, read-out: huvec.cyto.24hr
[4] = 24 hr, read-out: huvec.mito.24hr
[5] = 24 hr, read-out: huvec.mitoint.24hr
[6] = 24 hr, read-out: huvec.nma.24hr
[7] = 24 hrs, read-out: huvec.tc.24hrs

In the case of COc1ccc(-c2cccc(Cl)c2)cc1Cl [4-OMe PCB11], the viability at 0.01 µM [1, 3] is reported as 96.4%, the activity at 0.01 µM [1, 4] is reported as 94.6% and the activity at 0.01 µM [1, 5] is reported as 95.4%. For the same compound, the activity at 0.01 µM [1, 6] was 96.3%, the viability at 0.1 µM [1, 3] was 98.3% and the activity at 0.1 µM [1, 4] was 98.5%. For the same compound, the activity at 0.1 µM [1, 5] was 106%, the activity at 0.1 µM [1, 6] was 101% and the viability at 1 µM [1, 3] was 101%. For the same compound, the activity at 1 µM [1, 4] was 100%, the activity at 1 µM [1, 5] was 103% and the activity at 1 µM [1, 6] was 100%. The viability at 10 µM [1, 3] was 89.7%, the activity at 10 µM [1, 4] was 86.4% and the activity at 10 µM [1, 5] was 95.6%. It also gave an activity at 10 µM [1, 6] of 92.7%, a viability at 100 µM [1, 3] of 56.3% and an activity at 100 µM [1, 4] of 44%. It also gave an activity at 100 µM [1, 5] of 65.8%, an activity at 100 µM [1, 6] of 73.1% and a minimal effective concentration ([1]; 24 hr, read-out: huvec.cyto.24hr POD) of 7.59 µM. It also gave a minimal effective concentration ([1]; 24 hr, read-out: huvec.mito.24hr POD) of 6.19 µM, a minimal effective concentration ([1]; 24 hr, read-out: huvec.mitoint.24hr POD) of 16 µM and a minimal effective concentration ([1]; 24 hr, read-out: huvec.nma.24hr POD) of 6.39 µM. The viability at 0.01 µM [1, 7] was 96.4%, the viability at 0.1 µM [1, 7] was 98.4% and the viability at 1 µM [1, 7] was 101%. It also gave a viability at 10 µM [1, 7] of 89.7%, a viability at 100 µM [1, 7] of 56.4% and a minimal effective concentration ([1]; 24 hrs, read-out: huvec.tc.24hrs POD) of 7.59 µM. The viability at 0.01 µM ([2]; 1.5 h, read-out: cm.cam.90min) was 89.1%, the activity at 0.01 µM ([2]; 1.5 h, read-out: cm.mii.90min) was 112% and the activity at 0.01 µM ([2]; 1.5 h, read-out: cm.mito.90min) was 87.5%. The viability at 0.01 µM ([2]; 1.5 h, read-out: cm.tc.90min) was 89.6%, the viability at 0.1 µM ([2]; 1.5 h, read-out: cm.cam.90min) was 101% and the activity at 0.1 µM ([2]; 1.5 h, read-out: cm.mii.90min) was 93.8%. For the same compound, the activity at 0.1 µM ([2]; 1.5 h, read-out: cm.mito.90min) was 101%, the viability at 0.1 µM ([2]; 1.5 h, read-out: cm.tc.90min) was 101% and the viability at 1 µM ([2]; 1.5 h, read-out: cm.cam.90min) was 96.5%. For the same compound, the activity at 1 µM ([2]; 1.5 h, read-out: cm.mii.90min) was 94.7%, the activity at 1 µM ([2]; 1.5 h, read-out: cm.mito.90min) was 96.6% and the viability at 1 µM ([2]; 1.5 h, read-out: cm.tc.90min) was 96.7%. It also gave a viability at 10 µM ([2]; 1.5 h, read-out: cm.cam.90min) of 99.9%, an activity at 10 µM ([2]; 1.5 h, read-out: cm.mii.90min) of 109% and an activity at 10 µM ([2]; 1.5 h, read-out: cm.mito.90min) of 100%. For the same compound, the viability at 10 µM ([2]; 1.5 h, read-out: cm.tc.90min) was 100%, the viability at 100 µM ([2]; 1.5 h, read-out: cm.cam.90min) was 3.43% and the activity at 100 µM ([2]; 1.5 h, read-out: cm.mii.90min) was 74.3%. The activity at 100 µM ([2]; 1.5 h, read-out: cm.mito.90min) was 2.03%, the viability at 100 µM ([2]; 1.5 h, read-out: cm.tc.90min) was 3.76% and the viability at 0.01 µM ([2]; 24 h, read-out: cm.cam.24hrs) was 95.2%. It also gave an activity at 0.01 µM ([2]; 24 h, read-out: cm.mii.24hrs) of 95.8%, an activity at 0.01 µM ([2]; 24 h, read-out: cm.mito.24hrs) of 97.8% and a viability at 0.01 µM ([2]; 24 h, read-out: cm.tc.24hrs) of 97.4%. For the same compound, the viability at 0.1 µM ([2]; 24 h, read-out: cm.cam.24hrs) was 102%, the activity at 0.1 µM ([2]; 24 h, read-out: cm.mii.24hrs) was 88.6% and the activity at 0.1 µM ([2]; 24 h, read-out: cm.mito.24hrs) was 104%. It also gave a viability at 0.1 µM ([2]; 24 h, read-out: cm.tc.24hrs) of 103%, a viability at 1 µM ([2]; 24 h, read-out: cm.cam.24hrs) of 95.3% and an activity at 1 µM ([2]; 24 h, read-out: cm.mii.24hrs) of 107%. The activity at 1 µM ([2]; 24 h, read-out: cm.mito.24hrs) was 93.6%, the viability at 1 µM ([2]; 24 h, read-out: cm.tc.24hrs) was 95.6% and the viability at 10 µM ([2]; 24 h, read-out: cm.cam.24hrs) was 102%. For the same compound, the activity at 10 µM ([2]; 24 h, read-out: cm.mii.24hrs) was 85.8%, the activity at 10 µM ([2]; 24 h, read-out: cm.mito.24hrs) was 103% and the viability at 10 µM ([2]; 24 h, read-out: cm.tc.24hrs) was 103%. The viability at 100 µM ([2]; 24 h, read-out: cm.cam.24hrs) was 2.29%, the activity at 100 µM ([2]; 24 h, read-out: cm.mii.24hrs) was 34.1% and the activity at 100 µM ([2]; 24 h, read-out: cm.mito.24hrs) was 0.46%. The viability at 100 µM ([2]; 24 h, read-out: cm.tc.24hrs) was 2.4%, the minimal effective concentration ([2]; 1.5 h, read-out: cm.cam.90min POD) was 33.8 µM and the minimal effective concentration ([2]; 1.5 h, read-out: cm.mii.90min POD) was 62.2 µM. The minimal effective concentration ([2]; 1.5 h, read-out: cm.mito.90min POD) was 29.1 µM, the minimal effective concentration ([2]; 1.5 h, read-out: cm.tc.90min POD) was 28.6 µM and the minimal effective concentration ([2]; 24 h, read-out: cm.cam.24hrs POD) was 37.2 µM. It also gave a minimal effective concentration ([2]; 24 h, read-out: cm.mii.24hrs POD) of 10.8 µM, a minimal effective concentration ([2]; 24 h, read-out: cm.mito.24hrs POD) of 31.1 µM and a minimal effective concentration ([2]; 24 h, read-out: cm.tc.24hrs POD) of 33.4 µM.
